According to patent US8604003B2, “Promoter for hard tissue formation” (Seikagaku Corporation, priority 2005, dated 2013):
“Also recorded” adds a separate entry of the source.

How the values were obtained:
cell strain ST2 [1] = assay: Actions on cell growth, cell number by Coulter counter; format: cell-based, mouse; details: 50 μg/ml sample, αMEM containing 2% FBS, days 0, 1, 3, 6 (FIG. 9)
Procedure: (§1) Respective cells were inoculated onto a 24 well culture plate (manufactured by Falcon) in 5×10^3 cells/well portions. Starting on the first day after the inoculation, each sample to be tested (Hep, 2DSH, 6DSH or NDSH) was added to the culture liquid (αMEM containing 2% FBS) to a final concentration of 50 μg/ml. On the zero day, first day, third day and sixth day after addition of the sample to be tested, the number of cells was counted using a Coulter counter (COULTER Z1, manufactured by Coulter Electronics Inc.). A case in which the sample to be tested was not added was used as the control.

cell strain MC3T3-E1 [2] = assay: as above; format: cell-based, mouse; details: 50 μg/ml sample, αMEM containing 2% FBS, days 0, 1, 3, 6 (FIG. 8)
Procedure: as §1

cell strain ST2 [3] = assay: Cellular ALP activity (Bessey-Lowry method), 2% FBS-containing αMEM; format: cell-based, mouse; details: 50 μg/ml sample, first week after confluence, vs control without sample (FIG. 3)
Procedure: (§2) A mouse bone marrow-derived mesenchymal cell strain, ST2 cell strain, and a mouse osteoblast-like cell strain having more high differentiation degree, MC3T3-E1 cell strain, (both obtained from RIKEN CELL BANK), were used. In the following, culturing of these cells was carried out all under a condition of 37° C. and 5% CO2. Additionally, antibiotics (100 U/ml in final concentration of penicillin G, 100 μg/ml in final concentration of streptomycin and 250 μg/ml in final concentration of gentamicin) were allowed to coexist in all of the media to be used for the culturing of these cells.
(§3) Cellular ALP activity was measured as the index of cell differentiation. Cells were inoculated onto a 24 well culture plate at a density of 5×10^3 cells/well and cultured by adding 50 μg/ml in final concentration of each sample to 2% FBS-containing αMEM. On the first week after the cells reached confluent, ALP activity was measured by the following enzymologic method (Bessey-Lowry method).
(§4) After washing the cultured cells with PBS, the cells were disrupted and stirred for 40 seconds in 10 mM Tris-HCl buffer (pH 7.4, 500 μl) using an ultra sonic homogenizer (Handy Sonic model UR-20P; mfd. by Tomy Seiko Co., Ltd.). Next, 25 μl of the sample liquid was added to 125 μl of an ALP buffer (0.1M carbonate buffer pH 9.8, 6.7 mM p-nitrophenyl phosphate, 2 mM MgCl2) and incubated at 37° C. for 30 minutes. After terminating the reaction by adding 125 μL of 0.2 N NaOH, the absorbance at 405 nm was measured by using a microplate reader (Model 550, manufactured by Bio-Rad Laboratories). The calculated ALP activity was shown by unit per the number of cells. Additionally, a case in which the sample to be tested was not added was used as a control.
(§5) The results in which each sample to be tested was added to the cell strain MC3T3-E1 are shown in FIG. 1, and the results in which a sample to be tested (Hep, 2DSH, 6DSH or NDSH) was added to the cell strain MC3T3-E1 are shown in FIG. 2, and the results in which a sample to be tested (Hep, 2DSH, 6DSH or NDSH) was added to the cell strain ST2 are shown in FIG. 3, respectively.

cell strain MC3T3-E1 [4] = assay: as above; format: cell-based, mouse; details: 50 μg/ml sample, first week after confluence, vs control without sample (FIG. 1, FIG. 2)
Procedure: as §2, §3, §4, §5

Wistar rat [5] = assay: Transplantation under the cranial periosteum on hydroxyapatite carrier, HE staining, formation of hard tissue (bone); format: in vivo; details: 3 mg/ml sample on hydroxyapatite under cranial periosteum, fourth and eighth week
Procedure: (§6) A Wistar rat of 8 weeks of age was subjected to general anesthesia with ethyl carbamate 20 solution at a dose of 0.5 ml per 100 g body weight, and then the forehead skin and periosteum were incised. Each sample to be tested (Hep, 2DSH, 6DSH or NDSH; 100 μl for each) diluted to a concentration of 3 mg/ml with PBS was transplanted under the cranial periosteum. In this case, hydroxyapatite was used as the carrier.
(§7) Specifically, a block of hydroxyapatite (size: 3 mm in length×2 mm in breadth×2 mm in height; adsorbs about 0.1 ml of solution) was soaked for 30 minutes in each sample to be tested of a concentration of 3 mg/ml. It was used for the transplantation.
A substance in which test sample-free PBS was used was used as the control.
Each animal was sacrificed on the fourth week and eighth week after transplantation of the sample to be tested. Then slices of the transplanted parts were prepared and subjected to hematoxylin-eosin staining (HE staining). It was observed under an optical microscope to evaluate degree of the formation of a hard tissue (bone).

Wistar rat [6] = assay: Transplantation under the cranial periosteum, ratio of area of formed bone to hydroxyapatite region (image analysis); format: in vivo; details: 3 mg/ml sample on hydroxyapatite, fourth week and sixth week (FIG. 6)
Procedure: as §6, §7
In the same manner as in the aforementioned “5. Actions on cell differentiation (5)”, slices of the transplanted parts were prepared by sacrificing each animal on the fourth week and sixth week after transplantation of the sample to be tested (n=2 for each group). Ratio of the area of formed bone (hard tissue) to the area of the hydroxyapatite region observed in the image of said slice was analyzed by using an image analyzing software (Scion image; Scion Corporation).

cell strain ST2 [7] = assay: Calcification ability, alizarin staining; format: cell-based, mouse; details: ST2, 50 μg/ml sample, first week after confluence
Procedure: as §3
(§8) In order to examine calcification ability of the cells, alizarin staining (ALZ staining; stained in red indicates accelerated calcification) was carried out in accordance with the usual way, in the aforementioned “Actions on cell differentiation (1)” on the first week after the cells reached confluent. The cells were washed with PBS, fixed with 10 neutral-buffered formalin and then stained with 0.01 Alizarin Red S (manufactured by Wako Pure Chemical Industries).

cell strain MC3T3-E1 [8] = assay: Calcification ability, alizarin staining; format: cell-based, mouse; details: MC3T3-E1, 50 μg/ml sample, first week after confluence
Procedure: as §3, §8

cell strain ST2 [9] = assay: Cellular ALP activity, serum-free medium; format: cell-based, mouse; details: 50 μg/ml sample, serum-free medium (FIG. 5)
Procedure: as §2
(§9) Cellular ALP activity was measured as the index of cell differentiation. […] On the first week after the cells reached confluent, ALP activity was measured by the following enzymologic method (Bessey-Lowry method).
as §4
(§10) The results of adding each sample to be tested (Hep, 2DSH, 6DSH or NDSH) to the cell strain MC3T3-E1 are shown in FIG. 4, and the results of adding each sample to be tested (Hep, 2DSH, 6DSH or NDSH) to the cell strain ST2 are shown in FIG. 5, respectively. In this connection, the calculated ALP activity was shown by a numerical value of cells per DNA weight.

cell strain MC3T3-E1 [10] = assay: Cellular ALP activity, serum-free medium; format: cell-based, mouse; details: 50 μg/ml sample, serum-free medium (FIG. 4)
Procedure: as §2, §9, §4, §10

Wistar rat [11] = assay: Transplantation under the cranial periosteum, ratio of area of bone tissue to total tissues (image analysis); format: in vivo; details: 3 mg/ml sample on hydroxyapatite, fourth, eighth and twelfth week (FIG. 7)
Procedure: as §6, §7
In the same manner as in the aforementioned “5. Actions on cell differentiation (5)”, slices of the transplanted parts were prepared by sacrificing each animal on the fourth week, eighth week and twelfth week after transplantation of the sample to be tested (n=5 for each group). Ratio of the area of bone tissue to the area of the total tissues observed in the image of the slices of transplanted region was analyzed using an image analyzing software (Scion image; Scion Corporation). In this connection, the bars of respective weeks in FIG. 7 show the results in the control group, 2DSH group, 6DSH group, NDSH group and Hep group, respectively, starting from the left side.

Row | Substance | growth of the cell strain ST2 (number of cells) (cell strain ST2 [1]) | growth of the cell strain MC3T3-E1 (number of cells) (cell strain MC3T3-E1 [2]) | ALP activity of the cell strain ST2 (cell strain ST2 [3]) | ALP activity of the cell strain MC3T3-E1 (cell strain MC3T3-E1 [4]) | formation of bone (HE staining, optical microscope) (Wistar rat [5]) | ratio of the area of formed bone (hard tissue) to the area of the hydroxyapatite region (Wistar rat [6]) | formation of calcification matter (alizarin staining) (cell strain ST2 [7]) | formation of calcification matter (alizarin staining) (cell strain MC3T3-E1 [8]) | ALP activity of the cell strain ST2 under the serum-free condition (cell strain ST2 [9]) | ALP activity of the cell strain MC3T3-E1 under the serum-free condition (cell strain MC3T3-E1 [10]) | ratio of the area of bone tissue to the area of the total tissues (Wistar rat [11])
1 | heparin [reference compound] | suppressed it | suppress growth | increased the ALP activity | increased the ALP activity; also recorded: particularly effective | formation of bone was observed | formation of bone (hard tissue) was confirmed within a broad range | accelerated formation of calcification matter; also recorded: strong acceleration | accelerated formation of calcification matter | increased the ALP activity | increased the ALP activity; also recorded: particularly effective | formation of bone (hard tissue) was confirmed within a broad range; also recorded: remarkable
2 | 2-O-desulfated heparin [2DSH] | accelerated growth | small in comparison with that of Hep; also recorded: suppress growth | increased the ALP activity | increased the ALP activity | formation of bone was observed; also recorded: Remarkable bone formation | formation of bone (hard tissue) was confirmed within a broad range; also recorded: remarkable | accelerated formation of calcification matter; also recorded: strong acceleration | accelerated formation of calcification matter | increased the ALP activity; also recorded: particularly effective | increased the ALP activity; also recorded: particularly effective | formation of bone (hard tissue) was confirmed within a broad range; also recorded: remarkable
3 | 6-O-desulfated heparin [6DSH] |  | small in comparison with that of Hep; also recorded: suppress growth | increased the ALP activity | increased the ALP activity | formation of bone was observed | formation of bone (hard tissue) was confirmed within a broad range | accelerated formation of calcification matter | accelerated formation of calcification matter | increased the ALP activity | increased the ALP activity | formation of bone (hard tissue) was confirmed within a broad range
4 | N-desulfated heparin [NDSH] |  | small in comparison with that of Hep; also recorded: suppress growth | increased the ALP activity; also recorded: particularly effective | increased the ALP activity | formation of bone was observed | formation of bone (hard tissue) was confirmed within a broad range; also recorded: remarkable | accelerated formation of calcification matter; also recorded: strong acceleration | accelerated formation of calcification matter | increased the ALP activity | increased the ALP activity; also recorded: particularly effective | formation of bone (hard tissue) was confirmed within a broad range; also recorded: remarkable
